Each block holds one molecule with its values, some of them ahead of it.
Biological target: T1, IRAK4 (Homo sapiens, UniProt Q9NWZ3)
T1 sequence (Q9NWZ3 1-460): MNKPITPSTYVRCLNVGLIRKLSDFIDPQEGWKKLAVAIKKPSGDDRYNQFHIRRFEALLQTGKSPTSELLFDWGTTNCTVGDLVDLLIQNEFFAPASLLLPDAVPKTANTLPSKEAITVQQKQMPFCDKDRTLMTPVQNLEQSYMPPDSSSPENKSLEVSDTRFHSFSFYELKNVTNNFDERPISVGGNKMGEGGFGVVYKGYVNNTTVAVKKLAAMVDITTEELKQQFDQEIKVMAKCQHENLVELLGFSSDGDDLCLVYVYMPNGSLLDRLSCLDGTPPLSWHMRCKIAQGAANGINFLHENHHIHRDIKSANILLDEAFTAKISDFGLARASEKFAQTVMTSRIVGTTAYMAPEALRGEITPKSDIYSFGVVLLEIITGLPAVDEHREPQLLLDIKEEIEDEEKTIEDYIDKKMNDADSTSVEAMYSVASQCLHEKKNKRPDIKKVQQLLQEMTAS
Experiment: 2-hour 10 μM ATP Biochemical Assay (MesoScale Detection format; IRAK4 phosphorylation of biotin labeled IRAK1 activation loop peptide)
Settings: IRAK4 MSD BIOCHEMICAL (10 μM ATP) IC50 (μM), 1 nM IRAK4, 2 hours
Description: The 2-hour 10 μM ATP Biochemical Assay employs a MesoScale Detection (MSD) format.
The activity is quenched with 11 μl of 70 mM EDTA, pH 8.
To detect the phosphorylated biotinylated peptide substrate, 30 μl of the quenched reaction mixture is added to equivalent wells of a 384 well streptavidin coated MesoScale plate (Meso Scale Discovery #L21SA-1). After a 1 hour incubation of the plate for 1 hour at room temperature with gentle mixing, the plate wells are washed 3 times with 50 mM Tris, pH 7.5, 150 mM NaCl, 0.02% Tween-20.
A 25 μl volume of 1:500 anti-P-Threonine Rabbit polyclonal Antibody plus 1:500 Goat-anti-Rabbit Sulfo Tag Antibody (Meso Scale Discovery R32AB-1) in 50 mM Tris, pH 7.5, 150 mM NaCl, 0.02% Tween-20 plus 2% BSA is then added to each well. After a 1-hour incubation of the plate for 1 hour at room temperature with gentle mixing, the plate wells are washed, 3 times with 50 mM Tris, pH 7.5, 150 mM NaCl, 0.02% Tween-20. A 40 μl volume of 2×MSD Read Buffer (Meso Scale Discovery R92TC-1) is added to each well, and the plate is read immediately in an MSD Plate Reader (Meso Scale Discovery).

SMILES: O=C(Nc1cn2cc(C3CCOCC3)nc2cc1F)c1cccc(C(F)F)n1 [Example 293, 6-(difluoromethyl)-N-(7-fluoro-2-(tetrahydro-2H-pyran-4-yl)imidazo[1,2-a]pyridin-6-yl)picolinamide]
- IC50: 0.031 µM

SMILES: CCOc1cc2nc(C)c(C)n2cc1NC(=O)c1cccc(C(F)(F)F)n1 [Example 58, N-(7-ethoxy-2,3-dimethylimidazo[1,2-a]pyridin-6-yl)-6-(trifluoromethyl)picolinamide]
- IC50: 0.11 µM

SMILES: CCOc1cc2nc(CC3CCOC3)cn2cc1NC(=O)c1nc(C)no1 (stereo not drawn) [Example 158, N-(7-ethoxy-2-((tetrahydrofuran-3-yl)methyl)imidazo[1,2-a]pyridin-6-yl)-3-methyl-1,2,4-oxadiazole-5-carboxamide]
- IC50: 2.9 µM

SMILES: CCOc1cc2nc(CC3CCOC3)cn2cc1NC(=O)c1nc(C)co1 (stereo not drawn) [Example 154, N-(7-ethoxy-2-((tetrahydrofuran-3-yl)methyl)imidazo[1,2-a]pyridin-6-yl)-4-methyloxazole-2-carboxamide]
- IC50: 0.22 µM

SMILES: COc1cc2nc(C3CC3)cn2cc1NC(=O)c1cccn(C)c1=O [Example 52, N-(2-cyclopropyl-7-methoxyimidazo[1,2-a]pyridin-6-yl)-1-methyl-2-oxo-1,2-dihydropyridine-3-carboxamide]
- IC50: 0.033 µM

SMILES: O=C(Nc1cc(O)c2nc(C3CCOCC3)cn2c1)c1cccc(C(F)(F)F)n1 [Example 104, N-(8-hydroxy-2-(tetrahydro-2H-pyran-4-yl)imidazo[1,2-a]pyridin-6-yl)-6-(trifluoromethyl)picolinamide]
- IC50: 0.13 µM

SMILES: COc1cc(NC(=O)c2cccc(C(F)F)n2)cn2cc(C34COC(C3)C4)nc12 [Example 544, N-(2-(2-oxabicyclo[2.1.1]hexan-4-yl)-8-methoxyimidazo[1,2-a]pyridin-6-yl)-6-(difluoromethyl)picolinamide 2,2,2-trifluoroacetate]
- IC50: 0.011 µM

SMILES: CCOc1cc2nc([C@H]3C[C@H](OC)C3)cn2cc1NC(=O)c1cccc(C(F)F)n1 [Example 114, 6-(difluoromethyl)-N-(7-ethoxy-2-((1r,3r)-3-methoxycyclobutyl)imidazo[1,2-a]pyridin-6-yl)picolinamide]
- IC50: 0.001 µM

SMILES: COc1cc(NC(=O)c2csc(C)n2)cn2cc(C3CCOCC3)nc12 [Example 305, N-(8-methoxy-2-(tetrahydro-2H-pyran-4-yl)imidazo[1,2-a]pyridin-6-yl)-2-methylthiazole-4-carboxamide]
- IC50: 0.026 µM

SMILES: CCOc1cc2nc(CC)cn2cc1NC(=O)c1ccc2c(c1)CCOC2 [Example 47, N-(7-ethoxy-2-ethylimidazo[1,2-a]pyridin-6-yl)isochromane-6-carboxamide]
- IC50: 1.1 µM

SMILES: CCOc1cc2nc(CC)cn2cc1NC(=O)c1cccc2c1OCCN2C [Example 39, N-(7-ethoxy-2-ethylimidazo[1,2-a]pyridin-6-yl)-4-methyl-3,4-dihydro-2H-benzo[b][1,4]oxazine-8-carboxamide]
- IC50: 0.016 µM

SMILES: O=C(Nc1cc(C2=CCOCC2)c2nc(C3CCOCC3)cn2c1)c1cccc(C(F)(F)F)n1 [Example 107, N-(8-(3,6-dihydro-2H-pyran-4-yl)-2-(tetrahydro-2H-pyran-4-yl)imidazo[1,2-a]pyridin-6-yl)-6-(trifluoromethyl)picolinamide]
- IC50: 0.084 µM

SMILES: COc1cc(NC(=O)c2cccc(C(F)F)n2)cn2cc(CC3CCOC3)nc12 (stereo not drawn) [Example 411, 6-(difluoromethyl)-N-(8-methoxy-2-((tetrahydrofuran-3-yl)methyl)imidazo[1,2-a]pyridin-6-yl)picolinamide]
- IC50: 0.003 µM

SMILES: COc1nc(NC(=O)c2cccc3c2OCC3)cn2cc(C3CCOCC3)nc12 [Example 453, N-(8-methoxy-2-(tetrahydro-2H-pyran-4-yl)imidazo[1,2-a]pyrazin-6-yl)-2,3-dihydrobenzofuran-7-carboxamide]
- IC50: 0.005 µM

SMILES: COc1nc(NC(=O)c2cccc(C(F)F)n2)cn2cc(C3CCOCC3)nc12 [Example 450, 6-(difluoromethyl)-N-(8-methoxy-2-(tetrahydro-2H-pyran-4-yl)imidazo[1,2-a]pyrazin-6-yl)picolinamide]
- IC50: 0.003 µM

SMILES: CCOc1cc2nc(C34CC(C(C)(C)O)(C3)C4)cn2cc1NC(=O)c1cccc(C(F)F)n1 [Example 129, 6-(difluoromethyl)-N-(7-ethoxy-2-(3-(2-hydroxypropan-2-yl)bicyclo[1.1.1]pentan-1-yl)imidazo[1,2-a]pyridin-6-yl)picolinamide]
- IC50: 0.001 µM

SMILES: O=C(Nc1cnc2nc(C3CC3)cn2c1)c1cccc(C(F)(F)F)n1 [Example 92, N-(2-cyclopropylimidazo[1,2-a]pyrimidin-6-yl)-6-(trifluoromethyl)picolinamide]
- IC50: 0.076 µM

SMILES: O=C(Nc1cc(OCc2ccccc2)c2nc(C3CCOCC3)cn2c1)c1cccc(C(F)(F)F)n1 [Example 103, N-(8-(benzyloxy)-2-(tetrahydro-2H-pyran-4-yl)imidazo[1,2-a]pyridin-6-yl)-6-(trifluoromethyl)picolinamide]
- IC50: 0.023 µM

More lines, in order of falling IC50, values ahead:

- IC50: 2.6 µM
SMILES: CCOc1cc2nc(CC)cn2cc1NC(=O)c1ccc2c(c1)COCC2 [Example 43, N-(7-ethoxy-2-ethylimidazo[1,2-a]pyridin-6-yl)isochromane-7-carboxamide]

- IC50: 2 µM
SMILES: CCOc1cc2nc(CC)cn2cc1NC(=O)c1nc(C)c(C)s1 [Example 48, N-(7-ethoxy-2-ethylimidazo[1,2-a]pyridin-6-yl)-4,5-dimethylthiazole-2-carboxamide]

- IC50: 0.68 µM
SMILES: CCOc1cc2nc3c(n2cc1NC(=O)c1cccc(C(F)(F)F)n1)CNCC3 [Example 64, N-(7-ethoxy-1,2,3,4-tetrahydroimidazo[1,2-a:5,4-c′]dipyridin-8-yl)-6-(trifluoromethyl)picolinamide]

- IC50: 0.66 µM
SMILES: CCOc1cc2nc(C3CC3)cn2cc1NC(=O)c1cccnc1OCC(F)(F)F [Example 71, N-(2-cyclopropyl-7-ethoxyimidazo[1,2-a]pyridin-6-yl)-2-(2,2,2-trifluoroethoxy)nicotinamide]

- IC50: 0.28 µM
SMILES: C[C@H](COc1cc2nc(C3CC3)cn2cc1NC(=O)c1cccc(C(F)F)n1)n1ccccc1=O (single isomer, unassigned) [Example 7]

- IC50: 0.26 µM
SMILES: CCOc1cc2nc(CC)cn2cc1NC(=O)c1nc(C(F)(F)F)ccc1F [Example 36, N-(7-ethoxy-2-ethylimidazo[1,2-a]pyridin-6-yl)-3-fluoro-6-(trifluoromethyl)picolinamide]

- IC50: 0.17 µM
SMILES: CCc1cn2cc(NC(=O)c3cccc(C(F)F)n3)cc(F)c2n1 [Example 76, 6-(difluoromethyl)-N-(2-ethyl-8-fluoroimidazo[1,2-a]pyridin-6-yl)picolinamide]

- IC50: 0.15 µM
SMILES: CCOc1cc2nc(C3CC3)cn2cc1NC(=O)c1cccn(CC(F)(F)F)c1=O [Example 70, N-(2-cyclopropyl-7-ethoxyimidazo[1,2-a]pyridin-6-yl)-2-oxo-1-(2,2,2-trifluoroethyl)-1,2-dihydropyridine-3-carboxamide]

- IC50: 0.048 µM
SMILES: O=C(Nc1ccc2nc(C3CC3)cn2c1)c1cccc(C(F)F)n1 [Example 30, N-(2-cyclopropylimidazo[1,2-a]pyridin-6-yl)-6-(difluoromethyl)picolinamide]

- IC50: 0.029 µM
SMILES: CCOc1cc2nc(C3CCOCC3)cn2cc1NC(=O)c1cccc(OCC(F)(F)F)n1 [Example 363, N-(7-ethoxy-2-(tetrahydro-2H-pyran-4-yl)imidazo[1,2-a]pyridin-6-yl)-6-(2,2,2-trifluoroethoxy)picolinamide]

- IC50: 0.028 µM
SMILES: CCOc1cc2nc(C3CC3)cn2cc1NC(=O)c1cncc(C(F)(F)F)n1 [Example 120, N-(2-cyclopropyl-7-ethoxyimidazo[1,2-a]pyridin-6-yl)-6-(trifluoromethyl)pyrazine-2-carboxamide]

- IC50: 0.025 µM
SMILES: CCOc1cc2nc(C3CCOCC3)cn2cc1NC(=O)c1cccc(C)c1 [Example 229, N-(7-ethoxy-2-(tetrahydro-2H-pyran-4-yl)imidazo[1,2-a]pyridin-6-yl)-3-methylbenzamide]

- IC50: 0.023 µM
SMILES: CCOc1cc2nc(CC)cn2cc1NC(=O)c1ccc(C)c(C)n1 [Example 34, N-(7-ethoxy-2-ethylimidazo[1,2-a]pyridin-6-yl)-5,6-dimethylpicolinamide]

- IC50: 0.002 µM
SMILES: COc1cc(NC(=O)c2cccc(C(F)F)n2)cn2cc(C34COC(C)(C3)C4)nc12 [Example 508, 6-(difluoromethyl)-N-(8-methoxy-2-(1-methyl-2-oxabicyclo[2.1.1]hexan-4-yl)imidazo[1,2-a]pyridin-6-yl)picolinamide 2,2,2-trifluoroacetate]

- IC50: 0.001 µM
SMILES: CCOc1cc2nc(C3CCN(C)CC3)cn2cc1NC(=O)c1cccc(C(F)(F)F)n1 [Example 67, N-(7-ethoxy-2-(1-methylpiperidin-4-yl)imidazo[1,2-a]pyridin-6-yl)-6-(trifluoromethyl)picolinamide]

Reference: patent US20220089592A1, “IMIDAZO[1,2-A]PYRIDINYL DERIVATIVES AS IRAK4 INHIBITORS” (priority 2019, published 2022)
